This note sets out measurements from patent US10328075B2, “Method of treatment and compounds for use therein” (Baker Heart and Diabetes Institute, priority 2015, dated 2019).

Where two headings read alike, the source gives them in different places.

This assay addresses T1, hFPR2 (Homo sapiens, UniProt P25090).
T1 construct: expressed in transfected cells
T1 sequence (P25090 1-351): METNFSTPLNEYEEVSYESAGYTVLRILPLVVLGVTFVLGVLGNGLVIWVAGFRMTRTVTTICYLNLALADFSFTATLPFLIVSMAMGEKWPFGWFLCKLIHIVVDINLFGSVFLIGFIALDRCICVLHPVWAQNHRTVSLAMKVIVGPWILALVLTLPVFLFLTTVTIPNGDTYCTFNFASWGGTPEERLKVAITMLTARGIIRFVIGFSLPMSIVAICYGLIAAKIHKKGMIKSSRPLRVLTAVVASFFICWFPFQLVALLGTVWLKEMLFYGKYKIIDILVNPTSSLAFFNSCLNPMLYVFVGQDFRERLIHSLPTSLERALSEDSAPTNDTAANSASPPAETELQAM
Description: ERK1/2 phosphorylation (AlphaScreen SureFire) in hFPR2-FlpIn-CHO cells. The settings on record: for Time of maximal ERK1/2 phosphorylation in hFPR2-CHO cells: 10 μM, pilot timecourse; for EC50: read-out: pEC50, ERK1/2 phosphorylation, hFPR2-Flpln-CHO (converted); for ΔLog(τ/KA), ERK1/2 phosphorylation, hFPR2-Flpln-CHO: normalized transduction coefficient, reference agonist Cmpd43; for Log(τ/KA), ERK1/2 phosphorylation, hFPR2-Flpln-CHO: transduction coefficient. The assay is classed as cell-based. An excerpt:
cDNDA construct and generation of stable cell lines: cDNA in pcDNA3.1^+ encoding the human formyl peptide receptors (FPR) subtypes, hFPR1, hFPR2 and hFPR3 was obtained from Invitrogen. The sequences for 3 hFPR receptors were amplified by PCR and cloned into the Gateway entry vector, pDONR202™, using the BP clonase enzyme mix, according to the manufactures' instructions (Invitrogen Inc, Carlsbad, Calif., USA). All hFPR receptors constructs in pDONR201™ were subsequently transfected into the pEF5/FRT/V5/dest vector using the LR clonase enzyme mix (Invitrogen). Receptor constructs (pEF5/FRT/V5/dest) were used to transfect FIp-In CHO cells as described previously (Valant C et al., PNAS, 2014). Cells were selected using 500 μg/mL hydromycin to generate cell lines stably expressing each receptor construct. Cells were maintained and cultured in high glucose DMEM supplemented with 10% FBS, 16 mM HEPES and 500 μg/mL hydromycin at 37° C. under a humidified atmosphere containing 5% CO2.
In the various assays described below, cells were plated into 96-well transparent cell culture plates at 4×10^4 cells per well, cultured overnight in serum-free media at 37° C. in 5% CO2.
Measurement of extracellular signal regulated kinase 1 and 2 phosphorylation (pERK1/2): Initial ERK1/2 phosphorylation at Thr202/Tyr204 time-course experiments were performed to determine the time at which ERK1/2 phosphorylation was maximal after stimulation by each agonist. Cells were seeded onto transparent 96-well cell culture plates at 4×10^4 cells per well. After 6 h, cells were washed once with PBS, and then incubated in serum-free DMEM overnight, to allow FBS-stimulated phosphorylated ERK1/2 levels to subside. […] 10% (v/v) FBS was used as a positive control, with vehicle controls also included. The reaction was terminated by removal of study drugs and lysis of cells with 100 μL of SureFire lysis buffer (TGR Biosciences). Cell were lysed in SureFire lysis buffer and transferred to 384-well opaque proxiplates. Under low-light conditions, a 1:120 (v:v) dilution of AlphaScreen beads (both acceptor and donor):Surefire reaction buffer was prepared, which was mixed with the activation buffer in a ratio of 6:1 (v:v), respectively. Plates were incubated in the dark at 37° C. for 1 h before the fluorescence signal was measured by a Fusion-α plate reader (PerkinElmer Life and Analytical Sciences, Foster city, CA, USA) with standard AlphaScreen settings. Data were normalized to the maximal response elicited by 10% (v/v) FBS at the same time point.
Receptor mediated pERK1/2 levels were determined using the AlphaScreen™ ERK1/2 SureFire™ kit, as described previously (Keov, P et al., 2014). For all experiments, 10% FBS was used as internal positive control to stimulate pERK1/2, and which the maximum responses were used for normalization of data, whilst vehicle was used as negative control.
Data analysis: All data were analysed using GraphPad Prism 6.0 (GraphPad Software, San Deigo, Calif., USA). Where appropriate, concentration-response curves were fitted to derive the maximal agonist effect (Emax), and the ligand potency estimate (pEC50), where Emax is the maximal possible response of the system (not the agonist), basal is the basal level of response in the absence of agonist, and pEC50 is the negative logarithm of the agonist concentration that gives a response halfway between Emax and basal.
In the present study, FIp-IN CHO cells and Gateway plasmid were obtained from Invitrogen Inc (Carlsbad, Calif., USA). The sequences for all 3 known human FPRs (hFPR1, hFPR2 and hFPR3) were amplified by PCR and cloned into the Gateway entry vector, pDONR202TM, using the BP clonase enzyme mix, according to the manufacturers' instructions. The hFPR pDONR201TM constructs were subsequently transfected into the pEF5/FRT/V5/dest vector using the LR clonase enzyme mix (Invitrogen).

Setting [1] is: Table 2, percentage of ERK1/2 phosphorylation elicited by 10% FBS, read-out: Emax (%), ERK1/2 phosphorylation, hFPR2-Flpln-CHO.
The mark [2] stands for this setting: Table 8, percent of response elicited by 10% FBS, read-out: Emax, ERK1/2 phosphorylation, hFPR2-Flpln-CHO.

For `CC(C)C1C(NC(=O)Nc2ccc(Cl)cc2)C(=O)N(c2ccccc2)N1C` (stereo not drawn) [BIDI-002], the “Time of maximal ERK1/2 phosphorylation in hFPR2-CHO cells” value is 5 min. In addition, the Emax under setting [1] turned out to be 95 ± 4%. Moreover, the EC50 (Table 2) was 55 nM. For the same molecule, where the note is “Table 8”, the “ΔLog(τ/KA), ERK1/2 phosphorylation, hFPR2-Flpln-CHO” value is 0.0; the EC50 was 50.1 nM; the “Log(τ/KA), ERK1/2 phosphorylation, hFPR2-Flpln-CHO” value was found to be 7.7 ± 0.2. Under setting [2], the Emax was 95 ± 4%.

Take `CSCC[C@H](NC=O)C(=O)N[C@@H](CC(C)C)C(=O)N[C@@H](Cc1ccccc1)C(=O)O` [fMLP, N-formyl-Met-Leu-Phe]: the “Time of maximal ERK1/2 phosphorylation in hFPR2-CHO cells” value stood at 5 min. Besides, the Emax under setting [1] came out at 68 ± 11%. Besides, where the note is “Table 8”, the “ΔLog(τ/KA), ERK1/2 phosphorylation, hFPR2-Flpln-CHO” value is reported as −2.3 ± 0.2 and the “Log(τ/KA), ERK1/2 phosphorylation, hFPR2-Flpln-CHO” value was determined as 5.4 ± 0.1. Also, the Emax under setting [2] came out at 68 ± 11%.
